Data: ChEMBL document CHEMBL1201862, “PubChem BioAssay data set” (2004)
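Protocol summary: plate cells (96-well), add compound at 5 concentrations, incubate 48 h, interpolate endpoints linearly. GI50 marks 50% less growth.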 Calls of active or inactive are those of the source. No stated cut-off is given here; in the data, active = GI50 up to about 1.1 µM and inactive = higher.

What was measured:
Experiment in all cases: NCI-60 cell line screen, 48 h
MDA-MB-231 = tested on: MDA-MB-231
HT-29 = tested on: HT-29
SF-295 = tested on: SF-295
SK-MEL-2 = tested on: SK-MEL-2
MDA-MB-435 = tested on: MDA-MB-435
M14 = tested on: M14
OVCAR-3 = tested on: OVCAR-3
NCI-H23 = tested on: NCI-H23
OVCAR-5 = tested on: OVCAR-5
NCI-H226 = tested on: NCI-H226
SR = tested on: SR
EKVX = tested on: EKVX
SF-539 = tested on: SF-539
OVCAR-8 = tested on: OVCAR-8
BT-549 = tested on: BT-549
SK-OV-3 = tested on: SK-OV-3
TK-10 = tested on: TK-10
SW-620 = tested on: SW-620
Hs-578T = tested on: Hs-578T
Malme-3M = tested on: Malme-3M
RPMI-8226 = tested on: RPMI-8226
COLO 205 = tested on: COLO 205
U-251 = tested on: U-251
K562 = tested on: K562
SK-MEL-5 = tested on: SK-MEL-5
SK-MEL-28 = tested on: SK-MEL-28
UACC-257 = tested on: UACC-257
T47D = tested on: T47D
HCT-116 = tested on: HCT-116
SNB-19 = tested on: SNB-19
PC-3 = tested on: PC-3
HL-60 = tested on: HL-60
A549 = tested on: A549
MCF7 = tested on: MCF7
NCI-H460 = tested on: NCI-H460
LOX IMVI = tested on: LOX IMVI
CAKI-1 = tested on: CAKI-1
SF-268 = tested on: SF-268
NCI/ADR-RES = tested on: NCI/ADR-RES
HOP-62 = tested on: HOP-62
HCT-15 = tested on: HCT-15
CCRF-CEM = tested on: CCRF-CEM
A498 = tested on: A498
ACHN = tested on: ACHN
RXF 393 = tested on: RXF 393
MOLT-4 = tested on: MOLT-4
DU-145 = tested on: DU-145
IGROV-1 = tested on: IGROV-1
UO-31 = tested on: UO-31
UACC-62 = tested on: UACC-62
HOP-92 = tested on: HOP-92
OVCAR-4 = tested on: OVCAR-4
SN12C = tested on: SN12C

In the case of CC1(C)CCc2c(ccc(C(=O)/C=C/c3ccc(O)cc3)c2O)O1 [DORSMANNIN A], the GI50 (MDA-MB-231) is reported as 9.25 µM (inactive), the GI50 (HT-29) is reported as 11.9 µM (inactive) and the GI50 (SF-295) is reported as 12.4 µM (inactive). The GI50 (SK-MEL-2) was 11.9 µM (inactive), the GI50 (MDA-MB-435) was 10.3 µM (inactive) and the GI50 (M14) was 10.9 µM (inactive). The GI50 (OVCAR-3) was 8.99 µM (inactive), the GI50 (NCI-H23) was 12.5 µM (inactive) and the GI50 (OVCAR-5) was 11.6 µM (inactive). For the same molecule, the GI50 (NCI-H226) was 11.3 µM (inactive), the GI50 (SR) was 11.9 µM (inactive) and the GI50 (EKVX) was 0.142 µM (active). For the same molecule, the GI50 (SF-539) was 11.9 µM (inactive), the GI50 (OVCAR-8) was 12 µM (inactive) and the GI50 (BT-549) was 12.2 µM (inactive). For the same molecule, the GI50 (SK-OV-3) was 17.7 µM (inactive), the GI50 (TK-10) was 10.3 µM (inactive) and the GI50 (SW-620) was 13 µM (inactive). The GI50 (Hs-578T) was 14.1 µM (inactive), the GI50 (Malme-3M) was 7.59 µM (inactive) and the GI50 (RPMI-8226) was 8.39 µM (inactive). For the same molecule, the GI50 (COLO 205) was 10.9 µM (inactive), the GI50 (U-251) was 10.4 µM (inactive) and the GI50 (K562) was 27.8 µM (inactive). The GI50 (SK-MEL-5) was 11.2 µM (inactive), the GI50 (SK-MEL-28) was 0.201 µM (active) and the GI50 (UACC-257) was 12.5 µM (inactive). The GI50 (T47D) was 1.56 µM (inactive), the GI50 (HCT-116) was 10.3 µM (inactive) and the GI50 (SNB-19) was 13.9 µM (inactive). For the same molecule, the GI50 (PC-3) was 8.57 µM (inactive), the GI50 (HL-60) was 19.7 µM (inactive) and the GI50 (A549) was 11.9 µM (inactive). For the same molecule, the GI50 (MCF7) was 14.2 µM (inactive), the GI50 (NCI-H460) was 12.1 µM (inactive) and the GI50 (LOX IMVI) was 10.2 µM (inactive). For the same molecule, the GI50 (CAKI-1) was 5.28 µM (inactive), the GI50 (SF-268) was 12.9 µM (inactive) and the GI50 (NCI/ADR-RES) was 11.4 µM (inactive). For the same molecule, the GI50 (HOP-62) was 9.91 µM (inactive), the GI50 (HCT-15) was 10.8 µM and the GI50 (CCRF-CEM) was 2.78 µM (inactive). The GI50 (A498) was 13.7 µM (inactive), the GI50 (ACHN) was 10.7 µM (inactive) and the GI50 (RXF 393) was 10.6 µM (inactive). For the same molecule, the GI50 (MOLT-4) was 16.1 µM (inactive), the GI50 (DU-145) was 9.25 µM (inactive) and the GI50 (IGROV-1) was 9.1 µM (inactive). The GI50 (UO-31) was 12.3 µM (inactive), the GI50 (UACC-62) was 10 µM (inactive) and the GI50 (HOP-92) was 11.2 µM (inactive). For the same molecule, the GI50 (OVCAR-4) was 9.48 µM (inactive) and the GI50 (SN12C) was 10.9 µM (inactive).
